Values of other authors as cited in patent publication US10548837B1, “Topical montelukast for treatment of atopic dermatitis” (TARO PHARMACEUTICAL INDUSTRIES LTD., priority 2016, dated 2020).

Molecular target: T1, cysLT1 receptor (Homo sapiens, UniProt Q9Y271)
T1 sequence (Q9Y271 1-337): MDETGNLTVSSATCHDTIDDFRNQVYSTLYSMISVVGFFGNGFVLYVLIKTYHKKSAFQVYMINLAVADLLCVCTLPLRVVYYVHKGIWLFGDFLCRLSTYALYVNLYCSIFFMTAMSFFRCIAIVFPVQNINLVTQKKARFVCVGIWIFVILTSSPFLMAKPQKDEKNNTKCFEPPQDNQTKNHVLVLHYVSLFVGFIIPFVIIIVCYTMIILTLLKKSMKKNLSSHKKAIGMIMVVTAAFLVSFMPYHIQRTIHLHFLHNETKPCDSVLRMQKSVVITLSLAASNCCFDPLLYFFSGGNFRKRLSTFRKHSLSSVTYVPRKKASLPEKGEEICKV
Settings: background statement

binding to the cysLT1 receptor: high-affinity binding
SMILES: COc1cc(C(=O)NS(=O)(=O)c2ccccc2C)ccc1Cc1cn(C)c2ccc(NC(=O)OC3CCCC3)cc12 [zafirlukast]
